# Tests used:
# [1] = molecular target: T1, ligand binding domain of the human androgen receptor (AR-LBD) (Homo sapiens, UniProt P10275); experiment: Competitive binding, AR ligand binding domain
# T1 construct: purchased Thermo Fisher Scientific
# Procedure: (§1) The study aimed to characterize the competitive binding profile of EC313 to relevant human nuclear receptors. For the assays, commercially available ‘ligand binding domain’ proteins were purchased (Thermo Fisher Scientific). In addition, the full-length receptor proteins were expressed in transfected HI insect cells using the `Bac-to-bac Baculovirus expression system´ (Thermo Fisher Scientific). Cellular lysates served as receptor preparation. Receptor protein preparations were incubated with tritiated reference ligands and EC313 or reference steroids at concentrations between 0.1 and 1000 nM for 2h at 4°C to reach equilibrium. Subsequently, unbound steroids were adsorbed to dextran-coated charcoal (Sigma Aldrich), separated by filtration, and the remaining radioactivity was quantified in a ß-counter (Perkin Elmer). Displacement curves were fitted using the GraphPad Prism 7 free version to obtain EC50 values. Relative binding affinity (RBA [%], (C50ref/C50test)*100) and the competition coefficient (C50test/C50ref) were used to describe the relative binding potency of EC313 compared to the reference ligands.
# [2] = molecular target: T2, human estrogen receptor α (Homo sapiens, UniProt P03372); experiment: Competitive binding, human estrogen receptor α; conditions: ERα, full length
# T2 construct: coding for the full length human estrogen receptors α and β, respectively, were obtained from GenScript; made in house; host or cells: HI (Hi5) insect cells, baculovirus; cellular lysate
# Procedure: as §1
# There are two subtypes of estrogen receptors (ER), ERα and ERβ, coded in different genes. Plasmids pFastBac1-ERa and pFastBac1-ERb, coding for the full length human estrogen receptors α and β, respectively, were obtained from GenScript. […]
# [3] = molecular target: T3, PR-B – NCoR (Homo sapiens, UniProt P06401); experiment: PR-B – NCoR interaction, two-hybrid system; type: cell-based
# T3 construct: expressed in transfected cells
# Source text: The active recruitment of the nuclear corepressor NCoR results in transcriptional inactivity of the PR. So, the potency of PR ligands to induce the interaction of PR with NCoR provides information on the antagonistic potency of the ligand. Therefore, the capacity of EC313 to induce the interaction of PR-B with the corepressor NCoR in comparison with reference ligands was studied. All test compounds except the receptor agonist Promegestone induced PR to interact with NCoR.
# Figure 11 (A) PR-B interaction with NCoR using a two-hybrid assay. Dose response curve. […] (B) Liganded PR-Binteraction with c-SRC kinase. The data presented are from five independent experiments. Signals are represented as mean luminescence ± SD normalized to maximal promegestone activity equal to 100%.
# [4] = molecular target: T4, human androgen receptor (Homo sapiens, UniProt P10275); experiment: AR transactivation (CHO, MMTV-LUC); type: cell-based
# T4 construct: host or cells: CHO, transient co-transfection
# T4 sequence (P10275 1-920): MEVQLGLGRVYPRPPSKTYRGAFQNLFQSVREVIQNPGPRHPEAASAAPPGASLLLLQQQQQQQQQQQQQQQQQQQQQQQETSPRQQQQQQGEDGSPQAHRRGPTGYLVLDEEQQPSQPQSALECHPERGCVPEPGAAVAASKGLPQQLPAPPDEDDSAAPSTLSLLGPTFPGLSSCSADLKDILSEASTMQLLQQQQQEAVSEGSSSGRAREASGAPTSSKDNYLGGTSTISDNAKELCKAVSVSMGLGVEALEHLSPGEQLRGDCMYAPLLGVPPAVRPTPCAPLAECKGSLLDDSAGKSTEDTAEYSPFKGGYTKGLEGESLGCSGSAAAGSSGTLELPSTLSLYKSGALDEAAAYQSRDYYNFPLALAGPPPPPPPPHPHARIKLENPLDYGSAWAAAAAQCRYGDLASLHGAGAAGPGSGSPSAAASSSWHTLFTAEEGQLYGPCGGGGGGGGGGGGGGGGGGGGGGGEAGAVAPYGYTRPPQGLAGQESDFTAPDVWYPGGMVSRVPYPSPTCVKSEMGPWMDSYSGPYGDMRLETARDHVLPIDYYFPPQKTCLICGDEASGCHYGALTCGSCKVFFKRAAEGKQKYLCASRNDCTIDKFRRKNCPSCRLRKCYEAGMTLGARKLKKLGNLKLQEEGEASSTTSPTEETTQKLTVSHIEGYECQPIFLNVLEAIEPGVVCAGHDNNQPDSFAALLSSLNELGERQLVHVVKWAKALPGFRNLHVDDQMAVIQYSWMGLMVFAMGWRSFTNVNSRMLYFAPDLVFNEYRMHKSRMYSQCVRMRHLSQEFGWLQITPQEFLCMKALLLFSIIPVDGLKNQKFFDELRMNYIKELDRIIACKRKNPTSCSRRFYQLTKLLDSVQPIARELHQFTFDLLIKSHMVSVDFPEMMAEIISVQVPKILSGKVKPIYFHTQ
# Procedure: The androgen transactivation potential of EC313 was studied in the CHO cell line expressing this steroid protein receptor. The cells were co-transfected with a vector encoding a human full-length androgen receptor (hAR) linked to the reporter vector MMTV/LUC. To produce high protein expression, transient transfections were carried out. […] Agonist and antagonist properties of EC313 toward tested receptor AR were analyzed using luminescence detection.
# To prepare the transfection assay, plasmids were generated and isolated. Plasmid included vector coding sequences for the receptor as well as the reporter gene. Vector pcDNA3.1 coding sequence for the full length of human AR (AR cDNA ORF clone in pcDNA3.1+/C-(K)-DYK) was used as an expression vector for AR. Vector pGL4.36 coding for the androgen-responsive element (MMTV) linked to Firefly luciferase [luc2P/Hygro] was used as a reporter system (pGL4.36-MMTV/LUC).
# Co-transfection was performed on a 96-well plate (16x10^3 cells per well) in culture medium (RPMI w/o phenol red, 10% FBS, L-Glu) w/o antibiotics using transfection reagents following the manufacturer’s instructions. Prior to transfection, plated cells were approximately 70%–80% confluent. After 24h of transfection, medium was removed to a culture medium and cells were treated for the next 24h with the test compounds.
# After incubating the cells for 24h with the tested compounds, the luciferase activity was analyzed.
# T3 sequence (P06401 whole entry): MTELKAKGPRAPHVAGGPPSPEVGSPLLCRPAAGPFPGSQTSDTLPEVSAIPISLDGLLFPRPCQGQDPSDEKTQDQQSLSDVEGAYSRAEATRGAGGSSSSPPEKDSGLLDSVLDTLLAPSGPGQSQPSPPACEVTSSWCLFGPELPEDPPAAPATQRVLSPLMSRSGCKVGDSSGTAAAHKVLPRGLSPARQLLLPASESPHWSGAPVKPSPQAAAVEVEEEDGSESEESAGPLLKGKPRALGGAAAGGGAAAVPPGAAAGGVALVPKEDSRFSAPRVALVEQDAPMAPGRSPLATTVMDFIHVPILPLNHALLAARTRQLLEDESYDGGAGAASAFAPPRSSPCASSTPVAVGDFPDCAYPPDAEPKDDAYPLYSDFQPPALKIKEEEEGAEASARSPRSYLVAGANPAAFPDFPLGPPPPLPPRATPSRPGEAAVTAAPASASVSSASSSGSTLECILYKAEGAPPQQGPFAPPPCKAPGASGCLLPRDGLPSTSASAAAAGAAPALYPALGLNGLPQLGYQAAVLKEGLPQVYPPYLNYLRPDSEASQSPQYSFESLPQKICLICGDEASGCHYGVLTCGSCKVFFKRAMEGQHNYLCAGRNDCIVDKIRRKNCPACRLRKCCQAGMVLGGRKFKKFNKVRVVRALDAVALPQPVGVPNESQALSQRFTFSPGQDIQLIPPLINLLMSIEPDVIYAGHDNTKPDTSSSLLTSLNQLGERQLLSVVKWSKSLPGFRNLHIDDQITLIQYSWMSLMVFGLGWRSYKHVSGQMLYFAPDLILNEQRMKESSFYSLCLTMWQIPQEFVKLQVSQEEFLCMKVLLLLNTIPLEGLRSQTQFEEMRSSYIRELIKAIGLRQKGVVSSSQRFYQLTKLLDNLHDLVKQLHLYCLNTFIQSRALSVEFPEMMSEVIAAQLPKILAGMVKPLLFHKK
# T3 sequence (O75376 whole entry partner): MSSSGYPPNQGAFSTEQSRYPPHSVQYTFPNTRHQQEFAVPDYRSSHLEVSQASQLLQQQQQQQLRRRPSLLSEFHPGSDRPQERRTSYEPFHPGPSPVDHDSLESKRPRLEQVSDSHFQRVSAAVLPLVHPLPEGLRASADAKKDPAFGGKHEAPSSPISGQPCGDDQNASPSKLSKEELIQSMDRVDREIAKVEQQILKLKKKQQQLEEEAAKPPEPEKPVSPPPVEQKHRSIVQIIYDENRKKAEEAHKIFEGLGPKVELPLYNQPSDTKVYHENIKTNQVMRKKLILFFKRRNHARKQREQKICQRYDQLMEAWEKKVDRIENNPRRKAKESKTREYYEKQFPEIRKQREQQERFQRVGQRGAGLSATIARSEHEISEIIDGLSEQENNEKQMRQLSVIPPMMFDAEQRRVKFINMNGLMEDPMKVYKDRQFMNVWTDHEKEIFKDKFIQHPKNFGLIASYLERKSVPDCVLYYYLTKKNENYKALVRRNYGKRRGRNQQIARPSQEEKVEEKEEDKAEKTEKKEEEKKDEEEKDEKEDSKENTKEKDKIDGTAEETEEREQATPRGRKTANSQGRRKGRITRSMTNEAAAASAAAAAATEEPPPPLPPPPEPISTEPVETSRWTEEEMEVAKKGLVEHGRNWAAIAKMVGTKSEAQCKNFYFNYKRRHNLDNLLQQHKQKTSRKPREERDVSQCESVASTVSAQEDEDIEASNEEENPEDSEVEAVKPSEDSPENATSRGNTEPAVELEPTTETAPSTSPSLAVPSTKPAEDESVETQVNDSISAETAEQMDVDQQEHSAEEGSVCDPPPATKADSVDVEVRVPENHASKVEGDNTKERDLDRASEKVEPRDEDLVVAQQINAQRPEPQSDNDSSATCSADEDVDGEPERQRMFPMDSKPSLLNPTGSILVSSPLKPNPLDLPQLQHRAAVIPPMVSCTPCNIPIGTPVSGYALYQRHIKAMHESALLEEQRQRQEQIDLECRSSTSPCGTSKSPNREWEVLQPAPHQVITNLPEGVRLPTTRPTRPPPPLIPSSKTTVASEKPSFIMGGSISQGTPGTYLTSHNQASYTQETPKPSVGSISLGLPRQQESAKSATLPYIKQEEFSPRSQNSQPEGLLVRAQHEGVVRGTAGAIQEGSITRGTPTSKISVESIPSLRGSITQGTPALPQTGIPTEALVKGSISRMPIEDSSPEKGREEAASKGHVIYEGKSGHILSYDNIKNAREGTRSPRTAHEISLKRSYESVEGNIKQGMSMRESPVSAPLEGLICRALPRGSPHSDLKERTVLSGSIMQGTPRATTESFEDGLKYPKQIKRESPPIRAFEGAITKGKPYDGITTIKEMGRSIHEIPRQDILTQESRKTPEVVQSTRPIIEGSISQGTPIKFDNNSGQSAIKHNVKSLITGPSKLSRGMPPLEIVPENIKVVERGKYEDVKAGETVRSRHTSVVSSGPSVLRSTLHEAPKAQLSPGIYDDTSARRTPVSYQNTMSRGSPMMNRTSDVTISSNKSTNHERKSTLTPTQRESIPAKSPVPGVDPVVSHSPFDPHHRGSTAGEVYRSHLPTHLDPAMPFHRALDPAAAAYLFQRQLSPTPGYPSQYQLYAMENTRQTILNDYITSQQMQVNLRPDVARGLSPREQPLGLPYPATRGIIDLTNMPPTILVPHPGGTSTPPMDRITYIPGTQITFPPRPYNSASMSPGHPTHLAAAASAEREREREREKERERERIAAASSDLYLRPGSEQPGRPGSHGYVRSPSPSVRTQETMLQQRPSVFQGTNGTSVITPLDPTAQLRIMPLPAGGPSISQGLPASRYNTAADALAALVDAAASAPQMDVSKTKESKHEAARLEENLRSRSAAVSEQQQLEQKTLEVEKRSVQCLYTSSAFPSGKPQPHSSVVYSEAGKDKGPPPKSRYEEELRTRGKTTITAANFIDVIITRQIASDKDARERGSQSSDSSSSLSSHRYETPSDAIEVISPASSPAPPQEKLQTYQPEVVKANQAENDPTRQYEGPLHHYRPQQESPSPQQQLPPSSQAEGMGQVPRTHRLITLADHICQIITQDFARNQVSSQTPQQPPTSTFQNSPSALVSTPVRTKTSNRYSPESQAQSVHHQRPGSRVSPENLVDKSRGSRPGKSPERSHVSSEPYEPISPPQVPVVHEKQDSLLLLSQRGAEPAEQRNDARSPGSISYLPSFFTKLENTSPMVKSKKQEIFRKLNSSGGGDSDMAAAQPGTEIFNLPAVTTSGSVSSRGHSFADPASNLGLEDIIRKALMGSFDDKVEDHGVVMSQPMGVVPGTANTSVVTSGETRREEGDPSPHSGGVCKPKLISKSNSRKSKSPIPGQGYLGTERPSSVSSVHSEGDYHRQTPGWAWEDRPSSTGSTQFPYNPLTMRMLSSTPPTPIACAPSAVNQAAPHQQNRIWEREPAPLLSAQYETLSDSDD
# T2 sequence (P03372 whole entry): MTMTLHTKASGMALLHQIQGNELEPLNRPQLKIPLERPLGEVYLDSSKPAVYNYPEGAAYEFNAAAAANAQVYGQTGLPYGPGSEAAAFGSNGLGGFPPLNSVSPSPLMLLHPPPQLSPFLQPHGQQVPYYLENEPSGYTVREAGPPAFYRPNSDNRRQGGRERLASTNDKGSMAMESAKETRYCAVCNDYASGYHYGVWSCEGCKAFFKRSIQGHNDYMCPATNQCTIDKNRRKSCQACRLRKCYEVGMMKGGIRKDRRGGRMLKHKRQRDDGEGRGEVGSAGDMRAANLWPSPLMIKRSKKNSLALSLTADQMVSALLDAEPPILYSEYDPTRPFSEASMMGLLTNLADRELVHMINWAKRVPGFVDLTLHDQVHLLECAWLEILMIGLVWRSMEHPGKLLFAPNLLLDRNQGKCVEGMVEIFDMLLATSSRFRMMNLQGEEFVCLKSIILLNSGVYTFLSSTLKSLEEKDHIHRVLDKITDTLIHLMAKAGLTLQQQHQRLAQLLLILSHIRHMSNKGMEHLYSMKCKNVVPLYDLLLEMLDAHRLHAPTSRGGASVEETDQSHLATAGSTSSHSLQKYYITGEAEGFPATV
structure (smiles),measurement,setting,value
C[C@]12C[C@H](c3ccc(-c4ccoc4)cc3)C3=C4CCC(=O)C=C4CC[C@H]3[C@@H]1CC[C@]21OCCC1=C(F)F [EC313],IC50,[1]; AR-LBD,1060 nM
same,AR-LBD Comp. Coefficient,[1]; EC313 relative to Metribolone,17
same,competitive displacement of [3H]-estradiol,[2],did not cause any competitive displacement
same,"efficacy relative to Ulipristal acetate, NCoR interaction",[3],83%
same,"fold lower potency than Ulipristal acetate, NCoR interaction",[3],200 fold
same,induction of PR interaction with NCoR,[3],limited ability to induce progesterone receptor interaction with NCoR
same,fold higher concentration for the same androgenic effect vs Metribolone,[4]; AR agonism,38 fold
same,EC50,"[4]; AR, three experiments, read-out: EC50, agonistic activity",280 nM
same,antagonistic activity,"[4]; AR, vs 13 nM Metribolone",No antagonistic activity

# Source: PMC10520499, “Next step in the development of mesoprogestins: the preclinical profile of EC313” (Frontiers in Endocrinology, 2023)
